Results: patent US6482822B1, “N-(iminomethyl)amines derivatives, their preparation, their use as medicines and compositions containing them” (Societe de Conseils de Recherches et d'Applications …, priority 1998, dated 2002)
Where a name gives a salt, the structure may show the parent alone.

melting point: > 250 °C
Compound: NC(=Nc1ccc(CCCC(=O)Nc2ccc3[nH]c4ccccc4c3c2)cc1)c1cccs1 (as salt: hydrochloride) [Example 18, 4-(4-{[Amino(2-thienyl)methylidene]amino}phenyl)-N-(9H-carbazol-3-yl)butanamide Hydrochloride]
